For one compound, EC50 results are on record in US12281119B2, “Imidazo[2,1-f][1,2,4]triazin-4-amine derivatives as TLR7 agonist” (BEIGENE, LTD., priority 2019, dated 2025).

One assay addresses T1, human TLR 8 protein (Homo sapiens, UniProt Q9NR97).
T1 construct: expressed in transfected cells; host or cells: HEK293 (HEK-Blue hTLR8)
T1 sequence (Q9NR97 27-1041): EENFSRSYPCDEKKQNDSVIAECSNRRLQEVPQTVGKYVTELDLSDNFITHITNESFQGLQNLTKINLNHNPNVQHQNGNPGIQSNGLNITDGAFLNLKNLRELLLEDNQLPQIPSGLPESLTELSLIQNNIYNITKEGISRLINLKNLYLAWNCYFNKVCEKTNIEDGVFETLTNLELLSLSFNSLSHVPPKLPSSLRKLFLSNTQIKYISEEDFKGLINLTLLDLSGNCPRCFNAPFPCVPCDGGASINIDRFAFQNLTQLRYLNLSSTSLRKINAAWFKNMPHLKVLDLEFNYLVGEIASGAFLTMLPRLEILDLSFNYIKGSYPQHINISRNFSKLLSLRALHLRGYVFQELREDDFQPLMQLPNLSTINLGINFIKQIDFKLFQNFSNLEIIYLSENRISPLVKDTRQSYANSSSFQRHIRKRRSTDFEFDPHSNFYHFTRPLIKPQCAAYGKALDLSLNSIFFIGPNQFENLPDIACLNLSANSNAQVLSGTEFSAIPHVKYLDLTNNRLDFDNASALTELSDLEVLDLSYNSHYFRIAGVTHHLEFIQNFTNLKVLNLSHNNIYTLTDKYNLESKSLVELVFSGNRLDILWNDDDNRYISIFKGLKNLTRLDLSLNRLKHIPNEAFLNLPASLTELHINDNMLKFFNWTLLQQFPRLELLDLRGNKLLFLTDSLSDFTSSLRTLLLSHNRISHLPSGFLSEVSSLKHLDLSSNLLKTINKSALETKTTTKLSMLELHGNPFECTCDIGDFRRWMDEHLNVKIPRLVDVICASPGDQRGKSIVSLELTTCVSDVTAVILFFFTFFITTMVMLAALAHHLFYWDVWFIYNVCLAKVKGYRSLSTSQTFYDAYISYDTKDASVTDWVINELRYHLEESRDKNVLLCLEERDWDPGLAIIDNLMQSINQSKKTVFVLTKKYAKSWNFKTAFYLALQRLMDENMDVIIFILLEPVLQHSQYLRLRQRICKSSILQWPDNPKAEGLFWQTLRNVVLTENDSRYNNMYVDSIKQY
Briefly: TLR8 stimulation determined using HEK-Blue Detection. In kind it is cell-based. The following applies: HEK-Blue hTLR8 cells, 16 hr, relative to Resiquimod or Motolimod maximum. In a few lines:
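HEK-Blue hTLR8 cells with NF-κB/AP-1-driven SEAP reporter, 40000 cells/well, treated with 10-point dilutions (1 nM-10 uM final, 0.1% DMSO) for 16 hr at 37° C. SEAP read as OD 620-655 nm. EC50 derived from percent of maximum activation set by Resiquimod or Motolimod.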

A further assay has as its target T2, human TLR7 (Homo sapiens, UniProt Q9NYK1).
T2 sequence (Q9NYK1 27-1049): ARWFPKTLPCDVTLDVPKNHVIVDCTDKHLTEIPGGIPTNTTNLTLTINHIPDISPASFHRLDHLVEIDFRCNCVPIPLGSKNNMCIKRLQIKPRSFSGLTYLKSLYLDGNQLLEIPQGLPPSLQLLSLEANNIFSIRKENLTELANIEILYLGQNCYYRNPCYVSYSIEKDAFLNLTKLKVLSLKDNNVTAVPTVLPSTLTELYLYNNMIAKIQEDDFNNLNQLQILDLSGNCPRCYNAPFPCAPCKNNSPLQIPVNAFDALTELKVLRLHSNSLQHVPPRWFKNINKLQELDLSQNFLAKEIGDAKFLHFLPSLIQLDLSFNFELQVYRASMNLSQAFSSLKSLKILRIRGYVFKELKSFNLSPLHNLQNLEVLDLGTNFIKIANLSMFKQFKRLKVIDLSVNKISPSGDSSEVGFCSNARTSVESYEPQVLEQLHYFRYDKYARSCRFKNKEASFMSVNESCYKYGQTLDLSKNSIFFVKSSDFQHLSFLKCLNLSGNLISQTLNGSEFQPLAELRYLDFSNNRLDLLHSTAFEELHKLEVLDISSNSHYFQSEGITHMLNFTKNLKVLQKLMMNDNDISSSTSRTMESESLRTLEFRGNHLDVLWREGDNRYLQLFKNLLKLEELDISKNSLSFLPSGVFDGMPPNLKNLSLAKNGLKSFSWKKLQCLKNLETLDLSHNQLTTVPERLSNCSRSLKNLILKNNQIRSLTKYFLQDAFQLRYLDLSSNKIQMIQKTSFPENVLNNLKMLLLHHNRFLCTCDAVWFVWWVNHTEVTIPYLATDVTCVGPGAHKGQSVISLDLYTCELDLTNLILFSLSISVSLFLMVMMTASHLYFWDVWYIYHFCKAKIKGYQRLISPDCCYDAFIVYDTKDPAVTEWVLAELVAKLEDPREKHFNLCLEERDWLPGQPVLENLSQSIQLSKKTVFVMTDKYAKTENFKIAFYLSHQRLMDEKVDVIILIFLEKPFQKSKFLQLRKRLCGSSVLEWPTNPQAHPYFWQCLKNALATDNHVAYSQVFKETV
Nature of the assay: TLR7 stimulation determined using HEK-Blue Detection. In kind it is cell-based. The arrangement: expressed in transfected cells; host or cells: HEK293 (HEK-Blue hTLR7). The following applies: HEK-Blue hTLR7 cells, HEK-Blue Detection (A77-A124), 16 hr, relative to Resiquimod maximum. In a few lines:
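HEK-Blue hTLR7 cells (HEK293 with NF-κB/AP-1-driven SEAP reporter), 40000 cells/well, treated with 10-point dilutions from 0.04 nM to 10 μM final in 0.1% DMSO for 16 h at 37° C. SEAP read as OD 620-655 nm; EC50 derived from % of maximum activation with resiquimod.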

One may read the EC50 as the concentration giving half of the maximal effect. The low end stands for an effect from little substance, the high end for a need for much substance. As for `CCCC(CCO)Oc1nc(N)c2ncc(Cc3ccc(OCCNC)c(Cl)c3)n2n1` (centres unmarked) [Compound A102, 3-((4-amino-7-(3-chloro-4-(2-(methylamino)ethoxy)benzyl)imidazo[2,1-f][1,2,4]triazin-2-yl)oxy)hexan-1-ol], the EC50 amounted to 134 nM at human TLR 8 protein and 3.7 nM at human TLR7.
